Source: ChEMBL document CHEMBL4393690, “Acylated sulfonamide adenosines as potent inhibitors of the adenylate-forming enzyme superfamily” (Eur J Med Chem, 2019)

Experiments:
[1] = biological target: Serine--tRNA ligase (Escherichia coli (strain K12)) (UniProt P0A8L1); assay: (§1) Inhibition of recombinant Escherichia coli BL21(DE3) seryl-tRNA synthetase expressed in Escherichia coli Rosetta 2 (DE3) assessed as reduction in tRNA aminoacylation at 2 uM preincubated for 10 mins in presence of [14C]-isoleucin and tRNA followed by ATP addition and measured after 6 mins by scintillation counting method
Chain of Serine--tRNA ligase (Escherichia coli (strain K12)) (P0A8L1 whole entry, looked up): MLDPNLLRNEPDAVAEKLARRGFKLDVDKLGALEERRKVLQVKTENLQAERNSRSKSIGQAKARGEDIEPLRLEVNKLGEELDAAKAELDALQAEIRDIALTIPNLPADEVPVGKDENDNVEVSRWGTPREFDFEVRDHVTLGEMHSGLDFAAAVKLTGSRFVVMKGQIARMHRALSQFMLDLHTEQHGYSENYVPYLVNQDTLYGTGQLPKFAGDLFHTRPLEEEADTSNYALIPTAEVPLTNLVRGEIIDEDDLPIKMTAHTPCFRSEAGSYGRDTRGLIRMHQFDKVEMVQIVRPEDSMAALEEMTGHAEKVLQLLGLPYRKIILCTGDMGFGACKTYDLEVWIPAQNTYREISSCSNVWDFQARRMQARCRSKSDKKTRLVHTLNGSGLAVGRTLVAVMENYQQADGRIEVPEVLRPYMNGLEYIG

[2] = biological target: Isoleucine--tRNA ligase (Escherichia coli K-12, UniProt P00956); assay: as §1, with “isoleucyl-tRNA” for “seryl-tRNA”, “aminoacylation” for “aminoacylation at 2 uM”
Chain of Isoleucine--tRNA ligase (P00956 whole entry): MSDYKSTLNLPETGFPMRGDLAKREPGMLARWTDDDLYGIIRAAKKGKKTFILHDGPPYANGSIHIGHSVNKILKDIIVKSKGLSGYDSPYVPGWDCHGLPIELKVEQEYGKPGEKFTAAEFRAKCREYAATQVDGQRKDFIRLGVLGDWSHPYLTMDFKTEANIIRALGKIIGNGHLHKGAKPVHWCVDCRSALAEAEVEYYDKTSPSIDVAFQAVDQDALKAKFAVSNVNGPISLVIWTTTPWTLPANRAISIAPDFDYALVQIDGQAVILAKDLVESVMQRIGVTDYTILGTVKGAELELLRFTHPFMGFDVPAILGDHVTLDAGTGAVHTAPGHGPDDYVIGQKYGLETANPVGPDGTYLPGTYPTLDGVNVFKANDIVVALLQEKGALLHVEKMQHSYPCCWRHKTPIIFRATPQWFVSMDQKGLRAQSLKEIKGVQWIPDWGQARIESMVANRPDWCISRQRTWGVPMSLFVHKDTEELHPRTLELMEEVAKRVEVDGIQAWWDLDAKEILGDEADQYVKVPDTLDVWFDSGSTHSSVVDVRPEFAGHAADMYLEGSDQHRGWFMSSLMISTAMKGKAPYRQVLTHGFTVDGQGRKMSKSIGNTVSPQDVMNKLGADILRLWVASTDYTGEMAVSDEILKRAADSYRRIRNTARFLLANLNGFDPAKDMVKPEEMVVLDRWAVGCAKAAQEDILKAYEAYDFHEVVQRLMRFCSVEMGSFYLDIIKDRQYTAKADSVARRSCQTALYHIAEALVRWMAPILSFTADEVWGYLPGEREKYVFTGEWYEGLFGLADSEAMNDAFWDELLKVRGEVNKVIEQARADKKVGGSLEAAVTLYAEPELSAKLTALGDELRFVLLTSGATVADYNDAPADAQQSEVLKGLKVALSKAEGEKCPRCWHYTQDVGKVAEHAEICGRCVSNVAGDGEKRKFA

Row | inhibition [1] [%] | IC50 [2] [nM] | Ki ([2]; read-out: Ki(app)) [nM] | SMILES
1 | 30 |  |  | Nc1ncnc2c1ncn2[C@@H]1O[C@H](CCS(=O)(=O)NC(=O)[C@@H](N)CO)[C@@H](O)[C@H]1O
2 |  | 6.8 | 1.2 | CC[C@H](C)[C@H](N)C(=O)NS(=O)(=O)CC[C@H]1O[C@@H](n2cnc3c(N)ncnc32)[C@H](O)[C@@H]1O
